Results reported in patent publication US6525001B1, “Substituted pyrimidine and pyridine herbicides” (Mid-American Commercialization Corporation, priority 1997, dated 2003).

What was measured:
Assay type in all cases: in vivo
[1] = tested on: redroot pigweed (Amaranthus retroflexus); test: Test C; parameters: key: 0 was no effect; 100 was complete control; details: PREEMERGENCE
[2] = tested on: tall mallow (Malva sylvestris); test: Test E pre-/postemergence/post directed; parameters: key: 0 is no effect; 100 is complete control; details: PREEMERGENCE
Method in brief: (§1)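 Greenhouse pots; compound in non-phytotoxic solvent with surfactant, sprayed preemergence within one day of planting, postemergence at two to four leaf stage (three to twenty cm), or post directed to plant base and soil. Visual injury rated 13 to 21 days after application, 0 (none) to 100 (complete control).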

[3] = tested on: dallisgrass (Paspalum dilatatum); test: Test E pre-/postemergence/post directed; parameters: key: 0 is no effect; 100 is complete control
Method in brief: as §1

[4] = tested on: guineagrass (Panicum maximum); test: Test E pre-/postemergence/post directed; parameters: key: 0 is no effect; 100 is complete control
Method in brief: as §1

[5] = tested on: common purslane (Portulaca oleracea); test: Test E pre-/postemergence/post directed; parameters: key: 0 is no effect; 100 is complete control
Method in brief: as §1

[6] = tested on: johnsongrass (Sorghum halepense); test: Test C; details: PREEMERGENCE
[7] = tested on: broadleaf signalgrass (Brachiaria decumbens); test: Test B pre-/postemergence; parameters: key: 0 is no effect; 10 is complete control
Method in brief: (§2)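 Response scores run from 0, meaning no effect, to 10, meaning complete control, assigned by eye relative to controls twelve to sixteen days after spraying. Treatment was both preemergence on planted seed and postemergence on plants at the 1- to 4-leaf stage.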

[8] = tested on: pigweed (Amaranthus retroflexus); test: Test B pre-/postemergence; parameters: key: 0 is no effect; 10 is complete control
Method in brief: as §2

[9] = tested on: blackgrass (Alopecurus myosuroides); test: Test B pre-/postemergence; parameters: key: 0 is no effect; 10 is complete control
Method in brief: as §2

[10] = tested on: cocklebur (Xanthium strumarium); test: Test B pre-/postemergence; parameters: key: 0 is no effect; 10 is complete control
Method in brief: as §2

[11] = tested on: momingglory (Ipomoea hederacea); test: Test B pre-/postemergence; parameters: key: 0 is no effect; 10 is complete control
Method in brief: as §2

[12] = tested on: arrowleaf sida (Sida rhombifolia); test: Test C; parameters: key: 0 was no effect; 100 was complete control; details: PREEMERGENCE

COc1cnc(-c2ccc(C(F)(F)F)cc2)nc1Cc1cccc(C(F)(F)F)c1 [Compound 23]
Plant response rating, Redroot pigweed ([1]; Rate 35 g/ha): 100 | Plant response rating, Redroot pigweed ([1]; Rate 70 g/ha): 100 | Plant response rating, Redroot pigweed ([1]; Rate 140 g/ha): 100 | Plant response rating, Tall Mallow ([2]; Rate 32 g/ha): 80 | Plant response rating, Tall Mallow ([2]; Rate 64 g/ha): 85 | Plant response rating, Tall Mallow ([2]; Rate 125 g/ha): 85 | Plant response rating, Tall Mallow ([2]; Rate 250 g/ha): 90 | Plant response rating, Dallisgrass ([3]; POSTEMERGENCE, Rate 250 g/ha): 40 | Plant response rating, Dallisgrass ([3]; PREEMERGENCE, Rate 32 g/ha): 80 | Plant response rating, Dallisgrass ([3]; PREEMERGENCE, Rate 64 g/ha): 85 | Plant response rating, Dallisgrass ([3]; PREEMERGENCE, Rate 125 g/ha): 90 | Plant response rating, Dallisgrass ([3]; PREEMERGENCE, Rate 250 g/ha): 100 | Plant response rating, Guineagrass ([4]; POSTEMERGENCE, Rate 250 g/ha): 75 | Plant response rating, Guineagrass ([4]; PREEMERGENCE, Rate 32 g/ha): 80 | Plant response rating, Guineagrass ([4]; PREEMERGENCE, Rate 64 g/ha): 98 | Plant response rating, Guineagrass ([4]; PREEMERGENCE, Rate 125 g/ha): 98 | Plant response rating, Guineagrass ([4]; PREEMERGENCE, Rate 250 g/ha): 100 | Plant response rating, Com. purslane ([5]; POSTEMERGENCE, Rate 250 g/ha): 50 | Plant response rating, Com. purslane ([5]; PREEMERGENCE, Rate 32 g/ha): 100 | Plant response rating, Com. purslane ([5]; PREEMERGENCE, Rate 64 g/ha): 100 | Plant response rating, Com. purslane ([5]; PREEMERGENCE, Rate 125 g/ha): 100 | Plant response rating, Com. purslane ([5]; PREEMERGENCE, Rate 250 g/ha): 100 | Plant response rating, Johnsongrass ([6]; Rate 35 g/ha): 5 | Plant response rating, Johnsongrass ([6]; Rate 70 g/ha): 20 | Plant response rating, Johnsongrass ([6]; Rate 140 g/ha): 80 | Plant response rating, B. signalgrass ([7]; Rate 62 g/ha, Postemergence): 4 | B. signalgrass plant response rating ([7]; Rate 62 g/ha, Preemergence): 9 | Plant response rating, B. signalgrass ([7]; Rate 125 g/ha, Postemergence): 5 | B. signalgrass plant response rating ([7]; Rate 125 g/ha, Preemergence): 9 | Plant response rating, B. signalgrass ([7]; Rate 250 g/ha, Postemergence): 9 | Plant response rating, B. signalgrass ([7]; Rate 250 g/ha, Preemergence): 9 | Plant response rating, Redroot pigweed ([8]; Rate 62 g/ha, Postemergence): 9 | Redroot pigweed plant response rating ([8]; Rate 62 g/ha, Preemergence): 9 | Plant response rating, Redroot pigweed ([8]; Rate 125 g/ha, Postemergence): 10 | Redroot pigweed plant response rating ([8]; Rate 125 g/ha, Preemergence): 9 | Plant response rating, Redroot pigweed ([8]; Rate 250 g/ha, Postemergence): 10 | Plant response rating, Redroot pigweed ([8]; Rate 250 g/ha, Preemergence): 10 | Plant response rating, Blackgrass ([9]; Rate 62 g/ha, Postemergence): 6 | Blackgrass plant response rating ([9]; Rate 62 g/ha, Preemergence): 6 | Plant response rating, Blackgrass ([9]; Rate 125 g/ha, Postemergence): 7 | Blackgrass plant response rating ([9]; Rate 125 g/ha, Preemergence): 9 | Plant response rating, Blackgrass ([9]; Rate 250 g/ha, Postemergence): 9 | Plant response rating, Blackgrass ([9]; Rate 250 g/ha, Preemergence): 9 | Plant response rating, Cocklebur ([10]; Rate 62 g/ha, Postemergence): 9 | Cocklebur plant response rating ([10]; Rate 62 g/ha, Preemergence): 1 | Plant response rating, Cocklebur ([10]; Rate 125 g/ha, Postemergence): 10 | Cocklebur plant response rating ([10]; Rate 125 g/ha, Preemergence): 1 | Plant response rating, Cocklebur ([10]; Rate 250 g/ha, Postemergence): 10 | Plant response rating, Cocklebur ([10]; Rate 250 g/ha, Preemergence): 3 | Plant response rating, Morningglory ([11]; Rate 62 g/ha, Postemergence): 6 | Morningglory plant response rating ([11]; Rate 62 g/ha, Preemergence): 4 | Plant response rating, Morningglory ([11]; Rate 125 g/ha, Postemergence): 9 | Morningglory plant response rating ([11]; Rate 125 g/ha, Preemergence): 8 | Plant response rating, Morningglory ([11]; Rate 250 g/ha, Postemergence): 9 | Plant response rating, Morningglory ([11]; Rate 250 g/ha, Preemergence): 10 | Plant response rating, Arrowleaf sida ([12]; Rate 35 g/ha): 80 | Plant response rating, Arrowleaf sida ([12]; Rate 70 g/ha): 100 | Plant response rating, Arrowleaf sida ([12]; Rate 140 g/ha): 100
